Source: patent US9315494B2, “Alkyl-amide-substituted pyridyl compounds useful as modulators of IL-12, IL-23 and/or IFNα responses” (Bristol-Myers Squibb Company, priority 2012, dated 2016)

Key:
[1] = molecular target: T1, recombinantly expressed His-tagged protein corresponding to amino acids 575-869 of human Tyk2 (Homo sapiens, UniProt P29597); assay: Probe displacement assay (scintillation proximity, [3H] probe); type: binding; settings: 2.5 nM Tyk2 (575-869), 40 nM radiolabeled probe, 30 minutes at room temperature
T1 construct: corresponding to amino acids 575-869 of human Tyk2; made in house
T1 sequence (P29597 575-869): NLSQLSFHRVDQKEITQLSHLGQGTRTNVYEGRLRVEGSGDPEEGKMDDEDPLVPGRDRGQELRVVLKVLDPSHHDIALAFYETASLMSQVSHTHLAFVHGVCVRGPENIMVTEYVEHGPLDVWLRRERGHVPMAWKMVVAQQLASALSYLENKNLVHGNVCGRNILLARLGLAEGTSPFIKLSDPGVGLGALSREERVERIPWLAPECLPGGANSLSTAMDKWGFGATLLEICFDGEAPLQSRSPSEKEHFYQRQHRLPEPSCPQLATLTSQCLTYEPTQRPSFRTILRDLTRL
Experimental: The probe displacement assay is conducted as follows: In a […], test compounds along with recombinantly expressed His-tagged protein corresponding to amino acids 575-869 of human Tyk2 (sequence shown below) at 2.5 nM, 40 nM ((R)-N-(1-(3-(8-methyl-5-(methylamino)-8H-imidazo[4,5-d]thiazolo[5,4-b]pyridin-2-yl)phenyl)ethyl)-2-([^3H]methylsulfonyl)benzamide) (preparation described below) and 80 μg/mL Copper His-Tag scintillation proximity assay beads (Perkin Elmer, Catalog #RPNQ0095) in 50 mM HEPES, pH 7.5, containing 100 μg/mL bovine serum albumin and 5% DMSO were incubated for 30 minutes at room temperature. The amount of radiolabeled probe (preparation described below) bound to Tyk2 was then quantified by scintillation counting, and the inhibition by the test compound calculated by comparison to wells either with no inhibitor (0% inhibition) or without Tyk2 (100% inhibition).
Protein Sequence of recombinant Hig-tagged Tyk2 (575-869):
The preparation of radiolabeled probe, (R)-N-(1-(3-(8-methyl-5-(methylamino)-8H-imidazo[4,5-d]thiazolo[5,4-b]pyridin-2-yl)phenyl)ethyl)-2-([^3H]methylsulfonyl)benzamide, was performed as described below: […]

[2] = system: IFNα-stimulated STAT-dependent luciferase reporter in Kit225 T cells; assay: Kit225 T cell assay, IFNα stimulated STAT-dependent luciferase reporter; type: cell-based, human; settings: Kit225 T cells, 200 U/mL human recombinant IFNα, 5-6 hours, luciferase; read-out: IFNα (Kit225 T Cell Inhibition Data)
Summary of the method: (§1)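 Kit225 T cells carrying a stably integrated STAT-luciferase reporter, in RPMI with 10% heat-inactivated FBS, were stimulated with 20 ng/mL IL-23 or 200 U/mL IFNα for 5-6 h. Readout was luminescence from the luciferase reporter.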

[3] = system: IL-23-stimulated STAT-dependent luciferase reporter in Kit225 T cells; assay: Kit225 T cell assay, IL-23 stimulated STAT-dependent luciferase reporter; type: cell-based, human; settings: Kit225 T cells, 20 ng/mL human recombinant IL-23, 5-6 hours, luciferase; read-out: IL23 (Kit225 T Cell Inhibition Data)
Summary of the method: as §1

EC50 [1] [nM]	IC50 [2] [nM]	IC50 [3] [nM]	SMILES
246	3150	4270	CNC(=O)c1cnc(Nc2ccc(F)cn2)cc1Nc1ccc(N2CCOCC2)cc1 [Example 211]
6.5	60	110	CNC(=O)c1cnc(Nc2cc(C)c(F)cn2)cc1Nc1cccc(-c2cnn(C)c2)c1OC [Example 396]
8.2	140	260	CNC(=O)c1cnc(Nc2cncc(C)n2)cc1Nc1ccccc1S(C)(=O)=O [Example 42]
12	290	506	CNC(=O)c1cnc(Nc2cccc(OC)n2)cc1Nc1ccccc1C(N)=O [Example 73]
9.5	3430	3560	CNC(=O)c1cnc(Nc2cc(CO)ccn2)cc1Nc1ccccc1C(N)=O [Example 94]
6.3	2360	4250	CNC(=O)c1cnc(Nc2ccc(F)cn2)cc1Nc1ccc(C(=O)NCCO)cc1OC [Example 238]
13.2	30	57.4	CNC(=O)c1cnc(Nc2ccc3ccccc3n2)cc1Nc1ccccc1S(C)(=O)=O [Example 2]
3	120	80	CCc1cc(Nc2cc(Nc3ccccc3S(C)(=O)=O)c(C(=O)NC)cn2)ncn1 [Example 420]
20.1	140	151	CNC(=O)c1cnc(Nc2ccc(N3CCOCC3)cn2)cc1Nc1ccccc1SC [Example 226]
36.7	140	144	CNC(=O)c1cnc(Nc2ccc(N3CCOCC3)cn2)cc1Nc1ccccc1OC(F)F [Example 228]
5	80	90	CNC(=O)c1cnc(Nc2ccc(F)cn2)cc1Nc1cccc(C(N)=O)c1OC [Example 315, 4-((3-carbamoyl-2-methoxyphenyl)amino)-6-((5-fluoropyridin-2-yl)amino)-N-methylnicotinamide]
6.5	60	110	[2H]C([2H])([2H])NC(=O)c1cnc(Nc2ccc(F)cn2)cc1Nc1ccccc1S(C)(=O)=O [Example 298]
495	7300	12500	CNC(=O)c1cnc(Nc2ccc3ccccc3n2)cc1NC1CCCC1C(N)=O (stereo not drawn) [Example 289]
6	10	9.66	CNC(=O)c1cnc(Nc2cc(C)c(F)cn2)cc1Nc1cccc(-c2ccn(C)n2)c1OC [Example 391]
17.7	50	246	CNC(=O)c1cnc(Nc2ccc(N3CCOCC3)cn2)cc1Nc1ccc(Cl)cc1OC [Example 104]
6.5	160	312	CNC(=O)c1cnc(Nc2cc(C(=O)NCCOC)ccn2)cc1Nc1cc(F)cc(F)c1OC [Example 266]
3.8	160	257	CNC(=O)c1cnc(Nc2ccc3ccccc3n2)cc1Nc1ccccc1C(N)=O [Example 87]

EC50 [1] [nM]	IC50 [2] [nM]	IC50 [3] [nM]	SMILES
9.9	130	314	CNC(=O)c1cnc(Nc2cc(C#N)ccn2)cc1Nc1cc(F)cc(F)c1OC [Example 134]
436	9970	9680	CCc1cccc(Nc2cc(Nc3ccc(Cl)cc3OC)c(C(=O)NC)cn2)n1 [Example 125]
5.7	180	310	CNC(=O)c1cnc(Nc2cc(OC(C)C)ncn2)cc1Nc1ccccc1S(C)(=O)=O [Example 422]
46.1	230	517	CNC(=O)c1cnc(Nc2cc(Cl)ccn2)cc1Nc1cc(F)cc(F)c1OC [Example 144]
291	1480	3310	CNC(=O)c1cnc(Nc2ccc(N3CCOCC3)cn2)cc1Nc1ccccc1C [Example 217]
349	8660	3220	CNC(=O)c1cnc(Nc2ccc(F)cn2)cc1Nc1ccc(-c2ccccc2)cc1 [Example 194]
6.3	20	40	CNC(=O)c1cnc(Nc2cc(C)nc(C)n2)cc1Nc1cc(F)cc(F)c1OC [Example 409]
84.5	1290	898	CNC(=O)c1cnc(Nc2ccc(F)cn2)cc1Nc1ccccc1[S+](C)[O-] (stereo not drawn) [Example 62]
2.6	80	120	CNC(=O)c1cnc(Nc2cc(C)c(F)cn2)cc1Nc1cccc(C(=O)NCCF)c1OC [Example 356]
29.1	460	470	CNC(=O)c1ccc(Nc2cc(Nc3ccc(F)cn3)ncc2C(=O)NC)c(OC)c1 [Example 237]
40.6	370	499	CNC(=O)c1cnc(Nc2ccc(C#N)c(C)n2)cc1Nc1ccc(F)cc1OC [Example 152]
6.1	20	100	CCn1ncnc1-c1cccc(Nc2cc(Nc3cc(C)nc(C)n3)ncc2C(=O)NC)c1OC [Example 383]
5.3	10	9.98	CNC(=O)c1cnc(Nc2cc(C)c(F)cn2)cc1Nc1cccc(-c2nnco2)c1OC [Example 358]
106	1980	4220	CNC(=O)c1cnc(Nc2ccc3ccccc3n2)cc1N[C@@H]1CCCC[C@@H]1C(N)=O [Example 286]
4.7	40	70	CNC(=O)c1cnc(Nc2cc(C)n(C)n2)cc1Nc1cccc(-c2nnc[nH]2)c1OC [Example 363]
14.8	3170	1770	CNC(=O)c1cnc(Nc2ccc(F)cn2)cc1Nc1ccccc1CCO [Example 66]
